# Assay results: US20240238256A1, “NITAZOXANIDE IN THE TREATMENT OF SEPSIS” (GENFIT, priority 2021, published 2024)
# Legend:
# [1] = tested on: polymicrobial sepsis induced by cecal ligation and puncture (CLP); assay: CLP-induced polymicrobial sepsis, survival (Example 1); assay type: in vivo, C57BL6J male mice
# Source text: Polymicrobial sepsis induced by cecal ligation and puncture (CLP) is characterized by dysregulated systemic inflammatory responses followed by immunosuppression. The CLP model in mice mimics the progression and features of human sepsis and is thus also useful to determine whether a drug would be efficient in the treatment of prevention of transition from sepsis to septic shock.
# This study aims to investigate the efficacy of NTZ in CLP model in C57BL6J (BL6) male mice. The efficacy of the test compound was evaluated based on the survival rate of the animals within the study period.
# C57BL6J male mice (supplier Janvier—France) at 9 weeks of age and weighing 23-25 g on arrival were anesthetized with 250 µL of xylazine/ketamine solution (6.75 mg/kg for ketamine (Imalgene, Boehringer, Germany) et 2.5 mg/kg for xylazine (Rompund 2%, Bayer, Germany)) by intraperitoneal route. A 1-1.5 cm abdominal midline incision was made, and the cecum was located and tightly ligated at half the distance between distal pole and the base of the cecum with 4-0 silk suture (mild grade). The caecum was punctured through-and-through once with a 21-gauge needle from mesenteric toward antimesenteric direction after medium ligation. A small amount of stool was extruded to ensure that the wounds were patent. Then the cecum was replaced in its original position within the abdomen, which was closed with sutures and wound clips. Mice were followed for body weight evolution and mortality rate until Day 7.
# NTZ (Interchim, France) was administered by oral gavage at 50 mg/kg BID. NTZ treatment was initiated 3 days before CLP. The day of the surgery, NTZ was given once (50 mg/kg) 1 h before CLP and then a second time when animals have recovered from anesthesia (50 mg/kg). BID treatments was then pursued daily until the end of the study (n=15). Mice receiving NTZ vehicle (carboxymethylcellulose (#C4888, Sigma-Aldrich, Germany) BID served as controls (n=10). […]
# [2] = tested on: polymicrobial sepsis induced by CLP surgery; assay: CLP-induced sepsis, survival and welfare scoring, NTZ with or without 3-day pretreatment (Example 4); assay type: in vivo, C57BL6J mice; details: for mortality at 55 hours post-surgery: control group 60%; for mice survived sepsis at the end of the study: untreated 12.5%
# Protocol: Polymicrobial sepsis was induced by CLP surgery in C57BL6J mice, as described in Example 1. NTZ was prepared as previously described and administrated per os at 100 mg/kg/day BID either starting 3 days before CLP (3 day pretreatment) or starting on the same day as the CLP surgery (without pretreatment) as shown in FIG. 5A. C57BI/6J male mice (8 week-old, Janvier, France) were divided into 3 groups of 24 mice each, after 7 days acclimation: • Group 1 received vehicle for 3 days before surgery and for 6 days after CLP surgery. • Group 2 received nitazoxanide (NTZ) for 3 days before surgery and then for 6 days after CLP surgery (pretreatment). • Group 3 received vehicle for 3 days before surgery and then NTZ for 6 days after CLP surgery (without pretreatment).
# Treatments with NTZ were made twice daily at 9 am and […]. The day of the CLP surgery (Day 0), mice received NTZ or vehicle one hour before being anaesthetized (groups 2 and 3).
# Welfare scoring of severity of murine sepsis model has been published to harmonize human end points and also to normalize grades observed between animals throughout experiments (Shrum B, Anantha R V, Xu S X et al. A robust scoring system to evaluate sepsis severity in an animal model. BMC Res Notes 2014; 7:233). Animals were individually observed, and changes were recorded and scored according to their intensity. Observations included changes in appearance, activity, response to stimuli, eyes opening, breathing quality and evolution of body weight. For each of these clinical signs, the severity was measured on a scale of 0 to 3. The evolution of the severity was followed and the mean score at each time point was calculated and plotted on graphs. Arbitrary, when mice die or are euthanized, they are scored at 4.
# [3] = tested on: caspase 3/7 activity in HepG2 cells; assay: Staurosporine-induced apoptosis (caspase 3/7 activity) in HepG2 cells; assay type: cell-based, human; details: for inhibition at 6 µM: Homo sapiens, HepG2, 6 μM
# Protocol: The human hepatoblastoma-derived HepG2 cell line was cultured as described in Example 2. Caspase 3/7 activity was assessed in 1.5×10^4 cells plated in a 384-well plate (#781080, Greiner, France). After cell adherence (8 hours), cells were serum starved for 16 h with or without TZ, the active metabolite of NTZ. […] Caspase 3/7 activity was measured as previously described.
# [4] = tested on: polymicrobial sepsis induced by CLP surgery; assay: CLP-induced sepsis, survival and welfare scoring, NTZ before/after or only after surgery (Example 5); assay type: in vivo, C57BL6J mice; details: for mortality at 55 hours post-surgery: control group 55%; for mice survived sepsis at the end of the study (day 7): untreated 20%
# Protocol: Polymicrobial sepsis was induced by CLP surgery in C57BL6J mice, and NTZ was prepared and administrated per os, as described previously. […]
# During the 6 days following the surgery, treatments with NTZ were made twice daily at 9 am and 5 pm at the dose of 100 mg/kg/day (p.o. BID) per mouse. Control mice received vehicle the same way to avoid any deviations between control and treated mice.
# [5] = tested on: caspase 3/7 activity in HepG2 cells; assay: TNFα-induced apoptosis (caspase 3/7 activity) in HepG2 cells; assay type: cell-based, human; details: for increased caspase 3/7 activity: 24 hours
# Protocol: In order to evaluate the effect of NTZ on human hepatocytes that undergo a cellular stress induced by cytokines, the human hepatoblastoma-derived HepG2 cell line (#85011430, ECACC, UK) was cultured with or without TZ, the active metabolite of NTZ, in high-glucose DMEM medium (#41965, Gibco, France) supplemented with 10% of fetal bovine serum (FBS, #10270, Gibco), 1% penicillin/streptomycin (#15140, Gibco), 1% sodium pyruvate (#11360, Gibco) and 1% MEM non-essential amino acids (#11140, Gibco) in a 5% CO2 incubator at 37° ° C. To evaluate caspase 3/7 activity, which is a surrogate marker of apoptosis, 5×10^4 cells were plated in a 96-well plate (Thermo Fischer, Germany). After cell adherence (8 hours), cells were pre-treated with a dose range of 0.3 to 3 μM of TZ (Interchim, France), in FBS-deprived cell culture medium for 16 h. Thereafter, tumor necrosis factor α (TNFα) (#C6378, Promocell, Germany) was added to the wells at the dose of 10 or 30 ng/ml for additional 24 hours. Staurosporine (10 μM) (#19-123MG, Sigma-Aldrich, Germany) was used as a reference to induce apoptosis. Cells were incubated with staurosporine 3 hours before Caspase activity measurement. Caspase 3/7 activity was measured using Caspase Glow™ 3/7 assay (#G8093, Promega, USA). Luminescence was measured using a Spark microplate reader (#30086376, Tecan, USA). The amount of luminescence (RLU) directly correlates with caspase 3/7 activity.
# [6] = NTZ per os 100 mg/kg/day BID from day of CLP, without pretreatment
# [7] = NTZ per os 100 mg/kg/day BID with 3-day pretreatment
# [8] = concomitant addition with staurosporine, without pretreatment
# [9] = NTZ BID T-1 h/T+3.5 h, 100 mg/kg/day p.o.
# [10] = NTZ QD T+3.5 h (100 mg/kg) then 50 mg/kg BID p.o.
compound,measurement,setting,value
C[C@@H](O)[C@H]1C(=O)N2C(C(=O)O)=C(S[C@@H]3CN[C@H](C(=O)Nc4cccc(C(=O)O)c4)C3)[C@H](C)[C@H]12 [Ertapenem],mice saved at the end of the study,"[1]; Ertapenem 10 mg/kg intraperitoneal, 1 h before surgery and daily after CLP, Day 7",10%
"CC(=O)Oc1ccccc1C(=O)Nc1ncc([N+](=O)[O-])s1 [NTZ, [2-[(5-nitro-1,3-thiazol-2-yl)carbamoyl]phenyl]ethanoate]",mortality at 55 hours post-surgery,[2]; [6],17%
same,mice survived sepsis at the end of the study,[2]; [6],58.3%
same,mortality at 55 hours post-surgery,[2]; [7],25%
same,mice survived sepsis at the end of the study,[2]; [7],45.8%
same,inhibition at 6 µM,[3]; [8],78%
same,mice survived 7 days after intervention,"[1]; NTZ oral gavage 50 mg/kg BID, started 3 days before CLP",33%
same,mice still alive 3 days after surgery,"[1]; NTZ oral gavage 50 mg/kg BID, started 3 days before CLP, vehicle group 100% mortality at 3 days",47%
same,mortality at 55 hours post-surgery,[4]; [9],5%
same,mice survived sepsis at the end of the study (day 7),[4]; [9],80%
same,mortality at 55 hours post-surgery,[4]; [10],15%
same,mice survived sepsis at the end of the study (day 7),[4]; [10],70%
"O=C(Nc1ncc([N+](=O)[O-])s1)c1ccccc1O [TZ, tizoxanide]",inhibition at 3 µM,"[5]; Homo sapiens, 3 μM TZ, 16 h pretreatment, 10 ng/ml TNFα",40%
same,reduction of caspase activity,"[5]; TZ pretreatment, higher TNFα dose (30 ng/ml)",this effect was confirmed with the higher TNFα dose
same,inhibition at 6 µM,"[3]; 16 h pretreatment, staurosporine 30 μM",82%
same,inhibition at 6 µM,[3]; [8],64%
CN[C@@H]1C[C@H]2O[C@@](C)([C@@H]1OC)n1c3ccccc3c3c4c(c5c6ccccc6n2c5c31)C(=O)NC4 [staurosporine],increase of caspase 3/7 activity,"[3]; staurosporine 30 μM, 4 hours",11 fold
TNFα,increased caspase 3/7 activity,[5]; 10 ng/ml TNFα,1.5 fold
same,increased caspase 3/7 activity,[5]; 30 ng/ml TNFα,1.7 fold
